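GI50 is the concentration that inhibits growth by half. TGI: concentration producing complete growth inhibition.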
Assays:
Experiment in all cases: inhibition of tumour cell growth, NCI panel, 384-well format
[1] = system: RXF 393 renal
[2] = system: SF-295 CNS
[3] = system: MDA-MB-435 melanoma
[4] = system: OVCAR-3 ovarian
[5] = system: NCI-H322M lung
[6] = system: BT-549 breast
[7] = system: SF-539 CNS
[8] = system: OVCAR-4 ovarian
[9] = system: A498 renal
[10] = system: MALME-3M melanoma
[11] = system: SK-MEL-2 melanoma
[12] = system: A549 NSCLC
[13] = system: MCF7 breast
[14] = system: SK-MEL-5 melanoma
[15] = system: NCI-H522 lung
[16] = system: NCI-H23 lung
[17] = system: T-47D breast
[18] = system: SK-MEL-28 melanoma
[19] = system: SR leukemia
[20] = system: KM12 colon
[21] = system: MOLT-4 leukemia
[22] = system: NCI/ADR-RES ovarian
[23] = system: MDA-MB-468 breast
[24] = system: CAKI-1 renal
[25] = system: PC-3 prostate
[26] = system: UACC-62 melanoma
[27] = system: SW-620 colon
[28] = system: K-562 leukemia
[29] = system: NCI-H226 lung
[30] = system: SN12C renal
[31] = system: DU-145 prostate
[32] = system: U251 glioblastoma
[33] = system: HOP-62 NSCLC
[34] = system: HOP-92 NSCLC
[35] = system: HCT-15 colon
[36] = system: M14 melanoma
[37] = system: UO-31 renal
[38] = system: OVCAR-8 ovarian
[39] = system: SK-OV-3 ovarian
[40] = system: 786-0 renal
[41] = system: UACC-257 melanoma
[42] = system: HL-60(TB) leukemia
[43] = system: ACHN renal
[44] = system: COLO 205 colon
[45] = system: RPMI-8226 leukemia
[46] = system: TK-10 renal
[47] = system: IGROV1 ovarian
[48] = system: OVCAR-5 ovarian
[49] = system: LOX IMVI melanoma
[50] = system: CCRF-CEM leukemia
[51] = system: HT29 colon
[52] = system: NCI-H460 NSCLC
[53] = system: MDA-MB-231 breast

## CN(C(=O)c1ccc(C(F)(F)F)cc1)c1ccc(Oc2ccc3c(c2)cc(C(=O)N2CCN(Cc4ccc(OC(F)F)cc4)CC2)n3C)nc1
[1]
  GI50: < 0.01 µM
  TGI: < 0.01 µM
[2]
  GI50: 0.0107 µM
  TGI: > 100 µM
[3]
  GI50: > 100 µM
  TGI: > 100 µM
[4]
  GI50: 3.02 µM
  TGI: > 100 µM
[5]
  GI50: < 0.01 µM
  TGI: > 100 µM
[6]
  GI50: 1.27 µM
  TGI: > 100 µM
[7]
  GI50: > 100 µM
  TGI: > 100 µM
[8]
  GI50: < 0.01 µM
  TGI: > 100 µM
[9]
  GI50: < 0.01 µM
  TGI: 0.0209 µM
[10]
  GI50: > 100 µM
  TGI: > 100 µM
[11]
  GI50: > 100 µM
  TGI: > 100 µM
[12]
  GI50: < 0.01 µM
  TGI: > 100 µM
[13]
  GI50: 0.136 µM
  TGI: > 100 µM
[14]
  GI50: < 0.01 µM
  TGI: 0.95 µM
[15]
  GI50: < 0.01 µM
  TGI: > 100 µM
[16]
  GI50: < 0.01 µM
  TGI: < 0.01 µM
[17]
  GI50: < 0.01 µM
  TGI: 6.89 µM
[18]
  GI50: > 100 µM
  TGI: > 100 µM
[19]
  GI50: < 0.01 µM
  TGI: < 0.01 µM
[20]
  GI50: > 100 µM
  TGI: > 100 µM
[21]
  GI50: < 0.01 µM
  TGI: 1.42 µM
[22]
  GI50: < 0.01 µM
  TGI: 0.0671 µM
[23]
  GI50: < 0.01 µM
  TGI: < 0.01 µM
[24]
  GI50: > 100 µM
  TGI: > 100 µM
[25]
  GI50: 3.48 µM
  TGI: > 100 µM
[26]
  GI50: > 100 µM
  TGI: > 100 µM
[27]
  GI50: 8.11 µM
  TGI: > 100 µM
[28]
  GI50: < 0.01 µM
  TGI: > 100 µM
[29]
  GI50: 0.431 µM
  TGI: > 100 µM
[30]
  GI50: > 100 µM
  TGI: > 100 µM
[31]
  GI50: > 100 µM
  TGI: > 100 µM
[32]
  GI50: < 0.01 µM
  TGI: > 100 µM
[33]
  GI50: < 0.01 µM
  TGI: > 100 µM
[34]
  GI50: 0.864 µM
  TGI: > 100 µM
[35]
  GI50: 6.41 µM
  TGI: > 100 µM
[36]
  GI50: 6.53 µM
  TGI: > 100 µM
[37]
  GI50: > 100 µM
  TGI: > 100 µM
[38]
  GI50: < 0.01 µM
  TGI: > 100 µM
[39]
  GI50: < 0.01 µM
  TGI: > 100 µM
[40]
  GI50: > 100 µM
  TGI: > 100 µM
[41]
  GI50: < 0.01 µM
  TGI: 2.84 µM
[42]
  GI50: 1.01 µM
  TGI: 2.56 µM
[43]
  GI50: > 100 µM
  TGI: > 100 µM
[44]
  GI50: > 100 µM
  TGI: > 100 µM
[45]
  GI50: < 0.01 µM
  TGI: < 0.01 µM
[46]
  GI50: 2.97 µM
  TGI: > 100 µM
[47]
  GI50: 0.0201 µM
  TGI: > 100 µM
[48]
  GI50: > 100 µM
  TGI: > 100 µM
[49]
  GI50: < 0.01 µM
  TGI: > 100 µM
[50]
  GI50: < 0.01 µM
  TGI: 1.04 µM
[51]
  GI50: > 100 µM
  TGI: > 100 µM
[52]
  GI50: < 0.01 µM
  TGI: < 0.01 µM
[53]
  GI50: < 0.01 µM
  TGI: > 100 µM

Reference: PubChem BioAssay (NCI)
